# Results reported in patent publication US20140329782A1, “COMBINED THERAPEUTIC AGENT” (priority 2011, published 2014).
# Key:
# [1] = system: Crohn's disease; conditions: cited from earlier work
# [2] = in vivo; cited from earlier work
# [3] = system: peripheral mononuclear cells isolated from the blood of the test subjects; conditions: 100 μg/ml calcitriol, cited from earlier work
# [4] = system: patients suffering from persistent asthma (GINA II); assay: Use and efficacy study in patients with persistent asthma (GINA II); type: in vivo, human
# Method: • In the context of a first set of investigations, 11 patients from 32 to 65 years of age suffering from persistent asthma (GINA II) were treated with a combination therapy composed of inhaled glucocorticoid (beclomethasone, 2×200 μg/which inhalational) and inhaled long-acting beta-2 sympathomimetics (LABA, salmeterol) and also, perorally, theophylline. After one week of therapy, it was possible to achieve mild improvement of pulmonary function in 5 of the 11 test subjects. […] In two of the treated patients, it was also possible to reduce the beta-2 agonist demand by 10%. A further group based on 9 patients from 39 to 70 years of age having an identical indication, i.e., persistent asthma (GINA II), who were similarly administered with the abovementioned combination therapy composed of inhaled glucocorticoid and inhaled long-acting beta-2 sympathomimetics and also theophylline additionally received vitamin D for one week in a daily dose of 80 μg. After one week of therapy with the aforementioned dose, it was possible to achieve a mild to moderate improvement in pulmonary function in 6 of the 9 test subjects. After continued long-term therapy for 12 weeks, the persistent bronchial asthma had stabilized insofar as it was possible to reduce the inhaled glucocorticoid need by up to 60% in 7 of the 9 patients and it was possible to even completely temporarily discontinue the inhaled glucocorticoids in 1 of the 9 patients. […] In 4 of the treated patients, it was also possible to reduce the beta-2 agonist need by up to 40%.
# [5] = after long-term therapy for 12 weeks
molecule,measurement,setting,value
Cn1cnc([N+](=O)[O-])c1Sc1ncnc2nc[nH]c12 [azathioprine],remission,[1]; maintaining remission,83%
CCCC1O[C@@H]2C[C@H]3[C@@H]4CCC5=CC(=O)C=C[C@]5(C)[C@H]4[C@@H](O)C[C@]3(C)[C@]2(C(=O)CO)O1 (some centres unmarked) [budesonide],systemic adverse effects,[1]; 6 mg of budesonide,frequent systemic adverse effects with cortisol suppression
"C=C1CC[C@H](O)C/C1=C/C=C1\CCC[C@]2(C)[C@@H]([C@H](C)CCCC(C)(C)O)CC[C@@H]12 [calcifediol, 25-Hydroxyvitamin D3]",half life,[2],about 2.5 weeks
"C=C1/C(=C\C=C2/CCC[C@]3(C)[C@@H]([C@H](C)CCCC(C)(C)O)CC[C@@H]23)C[C@@H](O)C[C@@H]1O [calcitriol, 1,25-dihydroxyvitamin D3]",production of interferon gamma,[3],reduces
same,production of interleukin 10,[3],stimulates
same,inhibition of TNF-alpha production by patient group,[3]; Crohn's disease patients vs healthy,only in cells from patients suffering from Crohn's disease and not in cells from healthy patients
same,production of TNF-alpha in peripheral mononuclear cells,[3]; cells from patients suffering from inflammatory bowel diseases,could be lowered
vitamin D,patients in whom inhaled glucocorticoids could be completely temporarily discontinued,[4]; after 12 weeks,1 of the 9
same,patients in whom the beta-2 agonist demand could be reduced,[4]; after 12 weeks,4
same,patients in whom the inhaled glucocorticoid demand could be reduced,[4]; after 12 weeks,7 of the 9
same,reduction of the beta-2 agonist demand,[4]; [5],up to 40%
same,reduction of the inhaled glucocorticoid demand,[4]; [5],up to 60%
same,test subjects with improvement of pulmonary function,[4]; after one week of therapy,6 of the 9
same,tolerability,[4]; vitamin D 80 μg daily added to the combination therapy,well tolerated with no adverse effects
